From the kinase profiling compilation of Christmann-Franck et al. (2016)

Experiments:
AURKC (human) = AURKC (human) (UniProt Q9UQB9); assay: KINOMEscan competition binding
SGK110 (human) = SGK110 (human) (UniProt P0C264); assay: KINOMEscan competition binding
CSNK1E (human) [1] = biological target: CSNK1E (human) (UniProt P49674); assay: KINOMEscan competition binding
MARK3 (human) = MARK3 (human) (UniProt P27448); assay: KINOMEscan competition binding
MAP3K7 (human) = MAP3K7 (human) (UniProt O43318); assay: radiometric filter-binding kinase assay
Sequence of MAP3K7 (human) (O43318 whole entry, looked up): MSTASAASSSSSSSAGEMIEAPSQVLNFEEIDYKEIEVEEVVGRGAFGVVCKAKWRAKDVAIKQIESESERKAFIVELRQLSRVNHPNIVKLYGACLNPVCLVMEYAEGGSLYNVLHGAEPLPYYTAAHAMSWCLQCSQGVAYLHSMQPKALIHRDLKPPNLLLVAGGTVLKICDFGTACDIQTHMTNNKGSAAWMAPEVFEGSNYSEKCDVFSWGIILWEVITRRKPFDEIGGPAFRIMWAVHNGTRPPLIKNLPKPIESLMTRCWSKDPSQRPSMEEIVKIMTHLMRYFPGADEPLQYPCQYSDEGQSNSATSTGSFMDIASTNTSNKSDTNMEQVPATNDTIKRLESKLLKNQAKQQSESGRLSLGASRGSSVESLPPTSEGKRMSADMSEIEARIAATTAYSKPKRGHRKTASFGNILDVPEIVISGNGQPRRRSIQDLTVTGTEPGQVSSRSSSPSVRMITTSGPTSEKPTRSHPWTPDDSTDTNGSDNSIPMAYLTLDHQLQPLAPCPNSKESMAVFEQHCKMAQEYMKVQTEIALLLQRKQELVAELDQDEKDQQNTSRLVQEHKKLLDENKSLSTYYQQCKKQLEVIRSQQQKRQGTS

MAPK9 (human) = MAPK9 (human) (UniProt P45984); assay: radiometric filter-binding kinase assay
GSK3B (human) = GSK3B (human) (UniProt P49841); assay: radiometric filter-binding kinase assay
Sequence of GSK3B (human) (P49841 whole entry, looked up): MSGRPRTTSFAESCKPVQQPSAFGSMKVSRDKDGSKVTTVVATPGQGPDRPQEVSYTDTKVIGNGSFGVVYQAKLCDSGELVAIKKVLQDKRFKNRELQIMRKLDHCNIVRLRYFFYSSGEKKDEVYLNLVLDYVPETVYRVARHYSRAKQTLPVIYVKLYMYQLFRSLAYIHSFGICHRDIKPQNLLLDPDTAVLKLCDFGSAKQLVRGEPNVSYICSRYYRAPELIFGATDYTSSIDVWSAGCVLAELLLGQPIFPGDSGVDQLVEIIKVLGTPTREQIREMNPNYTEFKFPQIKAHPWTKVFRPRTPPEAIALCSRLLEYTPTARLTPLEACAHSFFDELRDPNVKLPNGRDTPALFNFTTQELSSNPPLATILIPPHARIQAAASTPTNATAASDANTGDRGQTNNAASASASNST

[2] = biological target: AKT2 (human), P31751 [S474D]; assay: radiometric filter-binding kinase assay
MAP3K9 (human) = MAP3K9 (human) (UniProt P80192); assay: radiometric filter-binding kinase assay
MAPK8 (human) = MAPK8 (human) (UniProt P45983); assay: radiometric filter-binding kinase assay
Sequence of MAPK8 (human) (P45983 whole entry, looked up): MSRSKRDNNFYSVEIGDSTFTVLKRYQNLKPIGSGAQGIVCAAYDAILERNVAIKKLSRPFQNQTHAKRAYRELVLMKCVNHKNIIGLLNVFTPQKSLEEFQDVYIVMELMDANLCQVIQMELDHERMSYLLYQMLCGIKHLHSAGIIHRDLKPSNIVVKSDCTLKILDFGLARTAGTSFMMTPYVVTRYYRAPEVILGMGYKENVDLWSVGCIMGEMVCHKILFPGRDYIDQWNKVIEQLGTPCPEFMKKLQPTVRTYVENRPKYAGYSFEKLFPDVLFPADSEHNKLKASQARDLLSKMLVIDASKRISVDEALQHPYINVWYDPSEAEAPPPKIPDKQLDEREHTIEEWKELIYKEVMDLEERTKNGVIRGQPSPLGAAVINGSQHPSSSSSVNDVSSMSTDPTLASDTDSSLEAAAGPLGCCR

MAPK10 (human) = MAPK10 (human) (UniProt P53779); assay: radiometric filter-binding kinase assay
Sequence of MAPK10 (human) (P53779 whole entry, looked up): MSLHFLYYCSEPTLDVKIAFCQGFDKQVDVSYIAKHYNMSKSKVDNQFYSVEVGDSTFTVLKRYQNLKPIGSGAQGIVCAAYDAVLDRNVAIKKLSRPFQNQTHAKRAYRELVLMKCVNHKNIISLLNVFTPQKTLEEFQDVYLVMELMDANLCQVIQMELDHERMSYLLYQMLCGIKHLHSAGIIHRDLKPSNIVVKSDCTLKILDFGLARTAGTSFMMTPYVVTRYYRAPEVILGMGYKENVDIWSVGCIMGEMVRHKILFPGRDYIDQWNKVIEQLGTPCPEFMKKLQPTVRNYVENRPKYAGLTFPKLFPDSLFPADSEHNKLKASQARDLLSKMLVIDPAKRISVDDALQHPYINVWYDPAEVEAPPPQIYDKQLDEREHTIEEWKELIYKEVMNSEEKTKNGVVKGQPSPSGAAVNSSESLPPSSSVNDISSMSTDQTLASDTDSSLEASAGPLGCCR

FLT1 (human) = FLT1 (human) (UniProt P17948); assay: radiometric filter-binding kinase assay
CaMK1 (human) = CaMK1 (human) (UniProt Q14012); assay: radiometric filter-binding kinase assay
AKT3 (human) = AKT3 (human) (UniProt Q9Y243)
AKT1 (human) = AKT1 (human) (UniProt P31749)
SLK (human) = SLK (human) (UniProt Q9H2G2)
JAK2 JH1 JH2 (human) = JAK2 JH1 JH2 (human) (UniProt O60674); assay: radiometric filter-binding kinase assay
GCK (human) = GCK (human) (UniProt Q12851); assay: radiometric filter-binding kinase assay
CLK2 (human) = CLK2 (human) (UniProt P49760); assay: radiometric filter-binding kinase assay
CSNK2A1 (human) = CSNK2A1 (human) (UniProt P68400); assay: radiometric filter-binding kinase assay
RIPK2 (human) = RIPK2 (human) (UniProt O43353); assay: radiometric filter-binding kinase assay
IRAK1 (human) [3] = biological target: IRAK1 (human) (UniProt P51617); assay: radiometric filter-binding kinase assay
HIPK1 (human) [4] = biological target: HIPK1 (human) (UniProt Q86Z02); assay: radiometric filter-binding kinase assay
MAPK15 (human) = MAPK15 (human) (UniProt Q8TD08); assay: radiometric filter-binding kinase assay
NUAK1 (human) = NUAK1 (human) (UniProt O60285); assay: radiometric filter-binding kinase assay
KIT (human) = KIT (human) (UniProt P10721)
Sequence of KIT (human) (P10721 whole entry, looked up): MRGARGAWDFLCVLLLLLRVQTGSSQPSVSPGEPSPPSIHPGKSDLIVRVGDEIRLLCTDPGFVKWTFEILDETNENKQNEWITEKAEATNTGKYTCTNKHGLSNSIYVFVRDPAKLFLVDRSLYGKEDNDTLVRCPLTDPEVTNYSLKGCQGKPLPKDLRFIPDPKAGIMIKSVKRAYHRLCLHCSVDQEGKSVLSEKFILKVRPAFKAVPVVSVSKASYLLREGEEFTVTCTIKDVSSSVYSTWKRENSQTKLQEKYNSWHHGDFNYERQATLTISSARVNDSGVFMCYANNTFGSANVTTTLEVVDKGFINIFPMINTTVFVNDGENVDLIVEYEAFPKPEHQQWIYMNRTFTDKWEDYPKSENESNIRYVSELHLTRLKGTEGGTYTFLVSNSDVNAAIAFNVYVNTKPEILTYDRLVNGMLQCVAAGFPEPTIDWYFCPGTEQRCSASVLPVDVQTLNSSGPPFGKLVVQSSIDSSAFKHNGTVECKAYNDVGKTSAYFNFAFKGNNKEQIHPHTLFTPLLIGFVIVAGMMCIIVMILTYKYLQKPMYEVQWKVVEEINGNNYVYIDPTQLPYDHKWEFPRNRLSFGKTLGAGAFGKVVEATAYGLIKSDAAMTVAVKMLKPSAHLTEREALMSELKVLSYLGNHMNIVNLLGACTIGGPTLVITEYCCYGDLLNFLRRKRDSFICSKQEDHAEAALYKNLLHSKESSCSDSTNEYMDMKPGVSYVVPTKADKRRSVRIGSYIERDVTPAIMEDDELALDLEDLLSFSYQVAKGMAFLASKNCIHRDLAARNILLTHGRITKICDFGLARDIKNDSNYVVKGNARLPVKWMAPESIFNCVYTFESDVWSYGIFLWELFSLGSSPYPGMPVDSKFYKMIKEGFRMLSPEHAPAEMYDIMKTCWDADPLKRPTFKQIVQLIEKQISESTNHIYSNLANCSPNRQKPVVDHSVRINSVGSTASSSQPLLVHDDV

IRAK1 (human) [5] = biological target: IRAK1 (human) (UniProt P51617)
HIPK1 (human) [6] = biological target: HIPK1 (human) (UniProt Q86Z02)
YES1 (human) = YES1 (human) (UniProt P07947); assay: radiometric filter-binding kinase assay
HIPK4 (human) = HIPK4 (human) (UniProt Q8NE63)
MKNK2 (human) = MKNK2 (human) (UniProt Q9HBH9)
PDGFRB (human) = PDGFRB (human) (UniProt P09619)
CSF1R (human) = CSF1R (human) (UniProt P07333)
PRKX (human) = PRKX (human) (UniProt P51817)
EPHB2 (human) = EPHB2 (human) (UniProt P29323); assay: radiometric filter-binding kinase assay
EPHB4 (human) = EPHB4 (human) (UniProt P54760); assay: radiometric filter-binding kinase assay
ERBB4 (human) = ERBB4 (human) (UniProt Q15303); assay: radiometric filter-binding kinase assay
CSNK1G2 (human) = CSNK1G2 (human) (UniProt P78368)
CSNK1E (human) [7] = biological target: CSNK1E (human) (UniProt P49674)
DDR1 (human) = DDR1 (human) (UniProt Q08345)

Sequence of AURKC (human) (Q9UQB9 whole entry, looked up): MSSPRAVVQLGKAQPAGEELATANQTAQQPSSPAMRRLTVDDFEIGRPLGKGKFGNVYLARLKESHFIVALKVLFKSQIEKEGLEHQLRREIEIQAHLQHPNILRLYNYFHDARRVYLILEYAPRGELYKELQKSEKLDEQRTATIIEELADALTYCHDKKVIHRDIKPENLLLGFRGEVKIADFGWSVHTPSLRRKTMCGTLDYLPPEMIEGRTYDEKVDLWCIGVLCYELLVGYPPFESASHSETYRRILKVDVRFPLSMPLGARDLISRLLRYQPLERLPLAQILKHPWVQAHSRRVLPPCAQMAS
Sequence of CSNK1E (human) (P49674 whole entry, looked up): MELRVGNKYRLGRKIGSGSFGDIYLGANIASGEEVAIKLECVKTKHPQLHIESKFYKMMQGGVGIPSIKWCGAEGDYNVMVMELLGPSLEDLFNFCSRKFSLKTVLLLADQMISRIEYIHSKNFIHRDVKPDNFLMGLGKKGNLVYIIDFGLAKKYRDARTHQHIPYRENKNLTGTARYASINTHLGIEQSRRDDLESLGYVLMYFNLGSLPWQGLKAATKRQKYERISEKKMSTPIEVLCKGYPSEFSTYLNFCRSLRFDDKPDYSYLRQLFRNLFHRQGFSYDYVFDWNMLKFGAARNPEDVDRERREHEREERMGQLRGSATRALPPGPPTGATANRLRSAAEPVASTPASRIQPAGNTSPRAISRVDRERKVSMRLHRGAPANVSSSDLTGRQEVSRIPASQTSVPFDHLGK
Sequence of SGK110 (human) (P0C264 whole entry, looked up): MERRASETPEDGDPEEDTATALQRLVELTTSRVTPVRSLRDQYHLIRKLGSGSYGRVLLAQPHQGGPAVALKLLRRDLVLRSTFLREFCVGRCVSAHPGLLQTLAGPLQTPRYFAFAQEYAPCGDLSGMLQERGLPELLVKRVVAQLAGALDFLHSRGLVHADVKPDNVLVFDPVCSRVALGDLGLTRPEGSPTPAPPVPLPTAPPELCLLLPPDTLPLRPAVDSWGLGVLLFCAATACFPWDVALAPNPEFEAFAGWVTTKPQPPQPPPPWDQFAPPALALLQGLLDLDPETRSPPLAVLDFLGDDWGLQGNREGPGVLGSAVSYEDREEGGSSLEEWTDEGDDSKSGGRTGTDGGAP
Sequence of MARK3 (human) (P27448 whole entry, looked up): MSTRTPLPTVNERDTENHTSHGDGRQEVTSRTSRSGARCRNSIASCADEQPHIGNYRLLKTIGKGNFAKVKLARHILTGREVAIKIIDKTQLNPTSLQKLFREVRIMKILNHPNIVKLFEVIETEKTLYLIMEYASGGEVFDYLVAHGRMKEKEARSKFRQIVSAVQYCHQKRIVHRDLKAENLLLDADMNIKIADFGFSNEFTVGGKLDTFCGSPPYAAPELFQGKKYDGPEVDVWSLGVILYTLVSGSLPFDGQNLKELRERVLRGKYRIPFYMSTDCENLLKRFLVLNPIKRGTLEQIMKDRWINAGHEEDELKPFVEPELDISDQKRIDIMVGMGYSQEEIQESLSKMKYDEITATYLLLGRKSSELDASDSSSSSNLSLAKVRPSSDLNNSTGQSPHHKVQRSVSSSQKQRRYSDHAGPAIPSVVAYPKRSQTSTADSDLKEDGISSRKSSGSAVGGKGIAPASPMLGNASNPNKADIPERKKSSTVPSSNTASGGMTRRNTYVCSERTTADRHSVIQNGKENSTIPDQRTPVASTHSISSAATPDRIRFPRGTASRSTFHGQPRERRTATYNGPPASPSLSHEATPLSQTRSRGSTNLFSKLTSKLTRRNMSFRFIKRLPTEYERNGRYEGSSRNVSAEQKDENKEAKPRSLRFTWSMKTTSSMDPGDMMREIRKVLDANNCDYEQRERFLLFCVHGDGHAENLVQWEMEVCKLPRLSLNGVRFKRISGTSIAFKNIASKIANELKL

Structure (SMILES) | kinase still bound, per cent of control (AURKC (human); compound 1.0 µM) | kinase still bound, per cent of control (SGK110 (human); compound 1.0 µM) | kinase still bound, per cent of control (CSNK1E (human) [1]; compound 1.0 µM) | kinase still bound, per cent of control (MARK3 (human); compound 1.0 µM) | IC50 (MAP3K7 (human)) | IC50 (MAPK9 (human)) | IC50 (GSK3B (human)) | IC50 (MAP3K9 (human)) | IC50 (MAPK8 (human)) | IC50 (MAPK10 (human)) | IC50 (FLT1 (human)) | IC50 (RIPK2 (human)) | IC50 (KIT (human)) | IC50 (PDGFRB (human)) | further results
CN(C)C/C=C/C(=O)Nc1cccc(C(=O)Nc2ccc(Nc3nccc(/C(C#N)=C4\Nc5ccccc5S4)n3)cc2)c1 | 76% | 100% | 41% | 100% | 866 nM | 490 nM | 84 nM | 104 nM | 327 nM | 354 nM | 134 nM |  |  |  | IC50 [2]: 970 nM; IC50 (CaMK1 (human)): 900 nM; IC50 (AKT3 (human)): > 370 nM; IC50 (AKT1 (human)): > 370 nM; IC50 (SLK (human)): 884 nM
CN(C)C/C=C/C(=O)Nc1cccc(C(=O)Nc2ccc(Nc3nccc(-c4cccnc4)n3)cc2)c1 | 33% | 100% | 6.8% | 100% | 833 nM |  | 933 nM |  | 41 nM |  |  | 729 nM | 2410 nM |  | IC50 (JAK2 JH1 JH2 (human)): 2510 nM; IC50 (GCK (human)): 20500 nM; IC50 (CLK2 (human)): 299 nM; IC50 (CSNK2A1 (human)): 506 nM; IC50 (IRAK1 (human) [3]): 175 nM; IC50 (HIPK1 (human) [4]): 7610 nM; IC50 (MAPK15 (human)): 183 nM; IC50 (NUAK1 (human)): 144 nM; IC50 (IRAK1 (human) [5]): 14.1 nM; IC50 (HIPK1 (human) [6]): 5010 nM
Cc1cc(NC(=O)c2cccc(NC(=O)/C=C/CN(C)C)c2)ccc1Nc1nccc(-c2cccnc2)n1 | 95% | 95% | 70% | 100% | 7720 nM |  |  |  |  |  |  |  | > 10000 nM | > 10000 nM | IC50 (YES1 (human)): 1280 nM; IC50 (HIPK4 (human)): 8970 nM; IC50 (MKNK2 (human)): 238 nM; IC50 (CSF1R (human)): 287 nM; IC50 (PRKX (human)): 7500 nM
Cc1ccc(NC(=O)c2ccc(NC(=O)/C=C/CN(C)C)cc2)cc1Nc1nccc(-c2cccnc2)n1 |  |  |  |  |  |  |  |  |  |  |  |  |  |  | kinase still bound, per cent of control (AURKC (human); compound 10.0 µM): 67%; kinase still bound, per cent of control (SGK110 (human); compound 10.0 µM): 85%; kinase still bound, per cent of control (CSNK1E (human) [1]; compound 10.0 µM): 72%; kinase still bound, per cent of control (MARK3 (human); compound 10.0 µM): 100%
CN(C)C/C=C/C(=O)Nc1cccc(C(=O)Nc2ccc(Nc3nccc(-c4c(-c5ccccc5)nn5ccccc45)n3)cc2)c1 | 84% | 100% | 0% | 75% | 351 nM | 23 nM | 32 nM | 45 nM | 39 nM | 8.4 nM | 18 nM | 42 nM | 1320 nM | 1030 nM | IC50 (EPHB2 (human)): 138 nM; IC50 (EPHB4 (human)): 121 nM; IC50 (ERBB4 (human)): 28.9 nM; IC50 (CSNK1G2 (human)): 161 nM; IC50 (CSNK1E (human) [7]): 82.9 nM; IC50 (DDR1 (human)): 56.1 nM
